Assay results: patent US20210369853A1, “TARGETED PROTEASE DEGRADATION PLATFORM” (EUBULUS BIOTHERAPEUTICS INC., priority 2018, published 2021)
Read-outs that look alike come from different tables or passages of the source.

Key:
Format in all cases: cell-based
[1] = test system: Human Acute Myelomonocytic Leukemia HL-60; test: Cell proliferation experiment (Alarm blue, 72 h, EC50); conditions: HL-60 cells
Summary of the method: (§1)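 Log-phase cells were seeded in 96-well plates, then exposed to test compound in a 5-fold dilution series, in duplicate, for 72 h. Fluorescence read by Alarm blue. EC50 fitted with a four-parameter (Min, Max, Slope) equation.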

[2] = test system: Human Colon Cancer HCT-116; test: as above; conditions: HCT116 cells
Summary of the method: as §1

[3] = test system: Human Monocytic Leukemia MV4-11; test: as above; conditions: Homo sapiens
Summary of the method: as §1

HUVEC [4] = test: Cell proliferation experiment (EC50), HUVEC; conditions: Homo sapiens
PBMC [5] = test: Cell proliferation experiment (EC50), PBMC
PLK1 = target: T1, PLK1 (Homo sapiens, UniProt P53350); test: Western blot, protein degradation (DC50)
T1 construct: endogenous in cells
T1 sequence (P53350 whole entry): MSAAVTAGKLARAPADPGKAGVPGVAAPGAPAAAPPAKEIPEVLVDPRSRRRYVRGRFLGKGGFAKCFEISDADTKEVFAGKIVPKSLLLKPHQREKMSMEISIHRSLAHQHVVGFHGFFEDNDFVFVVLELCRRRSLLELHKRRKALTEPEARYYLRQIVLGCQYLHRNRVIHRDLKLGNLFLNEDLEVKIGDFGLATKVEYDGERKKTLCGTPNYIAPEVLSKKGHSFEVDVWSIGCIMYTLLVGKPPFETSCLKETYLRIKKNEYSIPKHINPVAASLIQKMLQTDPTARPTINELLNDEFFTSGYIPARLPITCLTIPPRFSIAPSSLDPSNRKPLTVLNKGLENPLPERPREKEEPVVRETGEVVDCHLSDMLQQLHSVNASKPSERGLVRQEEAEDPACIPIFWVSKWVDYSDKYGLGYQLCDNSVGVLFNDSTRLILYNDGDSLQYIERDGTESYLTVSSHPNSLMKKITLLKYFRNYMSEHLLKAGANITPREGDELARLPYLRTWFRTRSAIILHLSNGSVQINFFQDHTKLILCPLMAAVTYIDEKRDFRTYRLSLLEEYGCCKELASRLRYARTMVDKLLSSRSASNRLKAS
Summary of the method: (§2)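 Cells treated with compound, lysed in RIPA and resolved by SDS-PAGE (4%-12%); PVDF blots probed with primary antibody overnight at 4° C, then secondary antibody, and developed with ECL. Band intensities quantified by densitometry to give degradation.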

HUVEC [6] = test: Cell proliferation experiment (EC50), HUVEC; conditions: Homo sapiens; remark: listed apart in the source
PBMC [7] = test: Cell proliferation experiment (EC50), PBMC; remark: listed apart in the source
Human Colon Cancer HT-29 = test: Cell proliferation experiment (Alarm blue, 72 h, EC50); conditions: HT-29 cells
Summary of the method: as §1

[8] = test system: Human Glioma Cells U-87 MG; test: as above; conditions: U-87MG cells
Summary of the method: as §1

[9] = test system: Human Small Cell Lung Cancer NCI-H82; test: as above; conditions: Homo sapiens, NCI-H82; NCIH82 cells
Summary of the method: as §1

Daudi [10] = test: Cell proliferation experiment (EC50), Daudi; conditions: Homo sapiens; Daudi cells
[11] = test system: Human Breast Cancer MDA-MB-231; test: Cell proliferation experiment (Alarm blue, 72 h, EC50); conditions: MDA-MB-231 cells
Summary of the method: as §1

[12] = test system: Human Monocytic Leukemia THP-1; test: as above; conditions: THP-1 cells
Summary of the method: as §1

[13] = test system: Human cervical adenocarcinoma cells Hela; test: as above
Summary of the method: as §1

BRD4 = target: T2, BRD4 (Homo sapiens, UniProt O60885); test: Western blot, protein degradation (DC50)
T2 construct: endogenous in cells
Summary of the method: as §2

[14] = test system: Human Acute Lymphoblastic Leukemia Cells MOLT-4; test: Cell proliferation experiment (Alarm blue, 72 h, EC50); conditions: MOL4-4 cells
Summary of the method: as §1

[15] = test system: Human Ovarian Cancer SK-OV-3; test: as above; conditions: SKO3 cells
Summary of the method: as §1

HUVEC [16] = test: Cell proliferation experiment (EC50), HUVEC; conditions: Homo sapiens; remark: listed apart in the source
PBMC [17] = test: Cell proliferation experiment (EC50), PBMC; remark: listed apart in the source
Daudi [18] = test: Cell proliferation experiment (EC50), Daudi; conditions: Homo sapiens; Daudi cells; remark: listed apart in the source
U937 [19] = test: Cell proliferation experiment (EC50), U937; conditions: Homo sapiens, U-937; U937 cells
A549 [20] = test: Cell proliferation experiment (EC50), A549; conditions: Homo sapiens; A549 cells
HUVEC [21] = test: Cell proliferation experiment (EC50), HUVEC; conditions: Homo sapiens; remark: listed apart in the source
PBMC [22] = test: Cell proliferation experiment (EC50), PBMC; remark: listed apart in the source
Daudi [23] = test: Cell proliferation experiment (EC50), Daudi; conditions: Homo sapiens; Daudi cells; remark: listed apart in the source
U937 [24] = test: Cell proliferation experiment (EC50), U937; conditions: Homo sapiens, U-937; U937 cells; remark: listed apart in the source
A549 [25] = test: Cell proliferation experiment (EC50), A549; conditions: Homo sapiens; A549 cells; remark: listed apart in the source
HUVEC [26] = test: Cell proliferation experiment (EC50), HUVEC
PBMC [27] = test: Cell proliferation experiment (EC50), PBMC; remark: listed apart in the source
[28] = 6 h, western blot, read-out: BRD4 DC50 (6 h)
[29] = 24 h, western blot, read-out: BRD4 DC50 (24 h)
[30] = 6 h, western blot, read-out: PLK1 DC50 (6 h)
[31] = 24 h, western blot, read-out: PLK1 DC50 (24 h)
[32] = 6 h, read-out: BRD4 DC50 (nM) (6 h)
[33] = 24 h, read-out: BRD4 DC50 (nM) (24 h)
[34] = 6 h, read-out: PLK1 DC50 (nM) (6 h)
[35] = 24 h, read-out: PLK1 DC50 (nM) (24 h)

Structure (SMILES)	EC50 [1] [µM]	EC50 ([2]; Homo sapiens, HCT-116) [µM]	EC50 ([3]; MV4-11, MV4;11 cells) [µM]	EC50 (Human Colon Cancer HT-29; Homo sapiens) [µM]	EC50 ([8]; Homo sapiens) [µM]	EC50 [9] [µM]	EC50 ([11]; Homo sapiens) [µM]	EC50 ([3]; MV4;11 cells) [µM]	EC50 [12] [µM]	EC50 ([13]; Homo sapiens) [µM]	EC50 ([15]; Homo sapiens, SK-OV-3) [µM]	DC50 (PLK1; [34]) [nM]	other results
O=C1CCC(N2Cc3c(NC(=O)CCOCCOCCOCCNC(=O)c4ccc(Nc5ncc6c(n5)-c5ccc(Cl)cc5C(c5c(F)cccc5F)=NC6)cc4)cccc3C2=O)C(=O)N1 (stereo not shown) [UB-180535]	> 1	> 1	0.01 to 0.1										EC50 (HUVEC [4]): > 1 µM; EC50 (PBMC [5]): > 1 µM
O=C1CCC(N2Cc3c(NC(=O)CCOCCOCCOCCNC(=O)[C@]4(Cc5cccc(Nc6nccs6)n5)CC[C@@H](Oc5cccc(Cl)c5F)CC4)cccc3C2=O)C(=O)N1 (stereo partly shown) [UB-180581]	0.1 to 1	> 1	0.01 to 0.1										DC50 (PLK1; 6 h, read-out: PLK1 DC50 (6 h)): < 10 nM; EC50 (HUVEC [6]): > 1 µM; EC50 (PBMC [7]): > 1 µM
CC[C@@H]1C(=O)N(C)c2cnc(Nc3ccc(C(=O)NCCOCCOCCOCCC(=O)Nc4cccc5c4CN(C4CCC(=O)NC4=O)C5=O)cc3OC)nc2N1C1CCCC1 (stereo partly shown) [UB-180605]			0.01 to 0.1	0.1 to 1	0.1 to 1	0.1 to 1							EC50 (Daudi [10]): 0.1 to 1 µM
CC[C@@H]1C(=O)N(C)c2cnc(Nc3ccc(C(=O)NCCOCCOCCOCCNCCC(=O)Nc4cccc5c4CN(C4CCC(=O)NC4=O)C5=O)cc3OC)nc2N1C1CCCC1 (stereo partly shown) [UB-180633]	0.1 to 1	> 1		0.1 to 1	0.1 to 1	> 1	0.1 to 1	0.01 to 0.1	0.1 to 1	0.1 to 1			DC50 (BRD4; 6 h, read-out: BRD4 DC50 (6 h)): < 10 nM; DC50 (BRD4; 24 h, read-out: BRD4 DC50 (24 h)): < 10 nM; DC50 (PLK1; 6 h, read-out: PLK1 DC50 (6 h)): 100 to 1000 nM; DC50 (PLK1; 24 h, read-out: PLK1 DC50 (24 h)): 10 to 100 nM; EC50 (HUVEC [6]): > 1 µM; EC50 (PBMC [7]): > 1 µM
CC[C@@H]1CN(C)c2cnc(Nc3ccc(C(=O)NCCOCCOCCOCCNCCC(=O)Nc4cccc5c4CN(C4CCC(=O)NC4=O)C5=O)cc3OC)nc2N1Cc1ccc(Cl)s1 (stereo partly shown) [UB-180701]	0.1 to 1	0.1 to 1		0.1 to 1	0.1 to 1	0.1 to 1	0.1 to 1	< 0.01	0.1 to 1	0.1 to 1	0.1 to 1		EC50 [14]: 0.1 to 1 µM; DC50 (BRD4; [28]): < 10 nM; DC50 (BRD4; [29]): < 10 nM; DC50 (PLK1; [30]): 10 to 100 nM; DC50 (PLK1; [31]): < 10 nM; EC50 (HUVEC [16]): > 1 µM; EC50 (PBMC [17]): > 1 µM; EC50 (Daudi [18]): 0.1 to 1 µM; EC50 (U937 [19]): 0.1 to 1 µM; EC50 (A549 [20]): 0.1 to 1 µM
CC[C@@H]1C(=O)N(C)c2cnc(Nc3ccc(C(=O)NC4CCN(CCNCCOCC(=O)Nc5cccc6c5CN(C5CCC(=O)NC5=O)C6=O)CC4)cc3OC)nc2N1Cc1ccc(Cl)s1 (stereo partly shown) [UB-180711]	0.1 to 1	0.1 to 1		0.1 to 1	0.1 to 1	0.1 to 1	0.1 to 1	< 0.01	0.1 to 1	0.1 to 1	0.1 to 1		EC50 [14]: 0.1 to 1 µM; DC50 (BRD4; [28]): < 10 nM; DC50 (BRD4; [29]): < 10 nM; DC50 (PLK1; [30]): 10 to 100 nM; DC50 (PLK1; [31]): < 10 nM; EC50 (HUVEC [16]): 0.1 to 1 µM; EC50 (PBMC [17]): 0.1 to 1 µM; EC50 (Daudi [18]): 0.1 to 1 µM; EC50 (U937 [19]): 0.1 to 1 µM; EC50 (A549 [20]): 0.1 to 1 µM
CC[C@@H]1C(=O)N(C)c2cnc(Nc3ccc(C(=O)NCc4cn(CCNCCC(=O)Nc5cccc6c5CN(C5CCC(=O)NC5=O)C6=O)nn4)cc3OC)nc2N1Cc1ccc(Cl)s1 (stereo partly shown) [UB-180714]			0.01 to 0.1									10 to 100	DC50 (BRD4; [32]): < 10 nM; DC50 (BRD4; [33]): < 10 nM; DC50 (PLK1; [35]): < 10 nM; EC50 (HUVEC [21]): 0.1 to 1 µM; EC50 (PBMC [22]): 0.1 to 1 µM
CC[C@@H]1C(=O)N(C)c2cnc(Nc3ccc(C(=O)NC4CCN(CCOCCNCC(=O)Nc5cccc6c5CN(C5CCC(=O)NC5=O)C6=O)CC4)cc3OC)nc2N1Cc1ccc(Cl)s1 (stereo partly shown) [UB-180725]	0.1 to 1	0.1 to 1	0.01 to 0.1	0.1 to 1	0.1 to 1	0.1 to 1	0.1 to 1		0.1 to 1	0.1 to 1	0.1 to 1	< 10	DC50 (BRD4; [32]): < 10 nM; DC50 (BRD4; [33]): < 10 nM; DC50 (PLK1; [35]): < 10 nM; EC50 (Daudi [23]): 0.1 to 1 µM; EC50 (U937 [24]): 0.1 to 1 µM; EC50 (A549 [25]): 0.1 to 1 µM
O=C1CCC(N2Cc3c(NC(=O)CNCCOCCOCCOCCNC(=O)[C@]4(Cc5cccc(Nc6nccs6)n5)CC[C@@H](Oc5cccc(Cl)c5F)CC4)cccc3C2=O)C(=O)N1 (stereo partly shown) [UB-180730]	> 1	0.1 to 1	0.01 to 0.1									< 10	EC50 (HUVEC [21]): > 1 µM; EC50 (PBMC [22]): > 1 µM
CC[C@@H]1C(=O)N(C)c2cnc(Nc3ccc(C(=O)NC4CCN(CCOCCN(CC(=O)Nc5cccc6c5CN(C5CCC(=O)NC5=O)C6=O)C(=O)OC(C)C(C)SSC[C@@H](NC(=O)CCOCCOCCOCCOCCOCCOCCNC(=O)CC[C@H](NC(=O)c5ccc(NCc6cnc7nc(N)[nH]c(=O)c7n6)cc5)C(=O)O)C(=O)O)CC4)cc3OC)nc2N1C1CCCC1 (stereo partly shown) [UB-180829]													EC50 [11]: 0.1 to 1 µM; EC50 [2]: 0.1 to 1 µM; EC50 (Human Colon Cancer HT-29): 0.1 to 1 µM; EC50 [8]: 0.1 to 1 µM; EC50 [15]: 0.1 to 1 µM; EC50 [13]: 0.1 to 1 µM; EC50 (HUVEC [26]): > 1 µM; EC50 (PBMC [27]): > 1 µM
